Measurements published in ChEMBL document CHEMBL5316298, “Discovery of Amphiphilic Xanthohumol Derivatives as Membrane-Targeting Antimicrobials against Methicillin-Resistant Staphylococcus aureus” (J Med Chem, 2023).
Values after ≈ are worked out from the molar mass of the structure shown. Active and inactive are the calls of the source. The rule behind the calls is not given here.

Assays:
Staphylococcus aureus [1] = test: Induction of drug resistance in Staphylococcus aureus ATCC 29213 assessed as fold increase in MIC at 0.5 times MIC measured for 20 passages relative to control; format: functional
Staphylococcus aureus [2] = test: Antibacterial activity against Staphylococcus aureus ATCC 29213 incubated for 16 to 18 hrs by CLSI-based microbroth dilution method; format: functional; settings: time 16-18 hrs
Staphylococcus aureus [3] = test: Antibacterial activity against methicillin-resistant Staphylococcus aureus clinical isolate 1 incubated for 16 to 18 hrs by CLSI-based microbroth dilution method; format: functional; settings: time 16-18 hrs
Staphylococcus aureus [4] = test: Antibacterial activity against methicillin-resistant Staphylococcus aureus clinical isolate 2 incubated for 16 to 18 hrs by CLSI-based microbroth dilution method; format: functional; settings: time 16-18 hrs
Staphylococcus aureus [5] = test: Antibacterial activity against methicillin-resistant Staphylococcus aureus clinical isolate 3 incubated for 16 to 18 hrs by CLSI-based microbroth dilution method; format: functional; settings: time 16-18 hrs
Staphylococcus aureus [6] = test: Antibacterial activity against methicillin-resistant Staphylococcus aureus clinical isolate 4 incubated for 16 to 18 hrs by CLSI-based microbroth dilution method; format: functional; settings: time 16-18 hrs
Staphylococcus aureus [7] = test: Antibacterial activity against methicillin-resistant Staphylococcus aureus clinical isolate 5 incubated for 16 to 18 hrs by CLSI-based microbroth dilution method; format: functional; settings: time 16-18 hrs
Staphylococcus aureus [8] = test: Antibacterial activity against methicillin-resistant Staphylococcus aureus clinical isolate 6 incubated for 16 to 18 hrs by CLSI-based microbroth dilution method; format: functional; settings: time 16-18 hrs
Staphylococcus aureus [9] = test: Antibacterial activity against methicillin-resistant Staphylococcus aureus clinical isolate 7 incubated for 16 to 18 hrs by CLSI-based microbroth dilution method; format: functional; settings: time 16-18 hrs
Staphylococcus aureus [10] = test: Antibacterial activity against methicillin-resistant Staphylococcus aureus clinical isolate 8 incubated for 16 to 18 hrs by CLSI-based microbroth dilution method; format: functional; settings: time 16-18 hrs
Staphylococcus aureus [11] = test: Antibacterial activity against methicillin-resistant Staphylococcus aureus clinical isolate 9 incubated for 16 to 18 hrs by CLSI-based microbroth dilution method; format: functional; settings: time 16-18 hrs
Staphylococcus aureus [12] = test: Antibacterial activity against methicillin-resistant Staphylococcus aureus clinical isolate 10 incubated for 16 to 18 hrs by CLSI-based microbroth dilution method; format: functional; settings: time 16-18 hrs
[13] = Hemolytic activity in sheep erythrocytes incubated for 1 hr by absorbance based analysis; format: toxicity, cell-based, Ovis aries, Erythrocyte
Cell membrane = test: Induction of membrane depolarization in methicillin-resistant Staphylococcus aureus 3 assessed as increase in fluorescence intensity at 32 ug/ml measured every 2 mins for 20 mins by SYTOX-green dye based fluorescence assay; format: subcellular; settings: dose 32.0 µg/ml

SMILES	fold change (FC) (Staphylococcus aureus [1])	MIC (Staphylococcus aureus [2]) [µg/mL]	MIC (Staphylococcus aureus [3]) [µg/mL]	MIC (Staphylococcus aureus [4]) [µg/mL]	MIC (Staphylococcus aureus [5]) [µg/mL]	MIC (Staphylococcus aureus [6]) [µg/mL]	MIC (Staphylococcus aureus [7]) [µg/mL]	MIC (Staphylococcus aureus [8]) [µg/mL]	MIC (Staphylococcus aureus [9]) [µg/mL]	MIC (Staphylococcus aureus [10]) [µg/mL]	MIC (Staphylococcus aureus [11]) [µg/mL]	MIC (Staphylococcus aureus [12]) [µg/mL]	HC50 at 1 h [13] [µg/mL]	Activity (Cell membrane)
CCn1cc(C(=O)O)c(=O)c2cc(F)c(N3CCNCC3)cc21	128													
COc1cc2c(c(O)c1C(=O)/C=C/c1ccc(OCCC[N+](C)(C)CC(=O)N(C(C)C)C(C)C)cc1)C=CC(C)(C)O2.[Br-]		4	2	2	1	2	1	1	2	2	2	4	158	
CCCN(CCC)C(=O)C[N+](C)(C)CCCOc1ccc(/C=C/C(=O)c2c(OC)cc3c(c2O)C=CC(C)(C)O3)cc1.[Br-]		2	2	2	1	2	2	2	1	2	1	2	118	
COc1cc2c(c(O)c1C(=O)/C=C/c1ccc(O)cc1)C=CC(C)(C)O2 [XANTHOHUMOL C]		4 (≈ 11.4 µM)	4 (≈ 11.4 µM)	4 (≈ 11.4 µM)	4 (≈ 11.4 µM)	4 (≈ 11.4 µM)	4 (≈ 11.4 µM)	8 (≈ 22.7 µM)	4 (≈ 11.4 µM)	4 (≈ 11.4 µM)	8 (≈ 22.7 µM)	4 (≈ 11.4 µM)	222	
CCCCCNC(=O)C[N+](C)(C)CCCCCOc1ccc(/C=C/C(=O)c2c(OC)cc3c(c2O)C=CC(C)(C)O3)cc1.[Br-]		2	2	2	2	2	2	2	4	2	8	4	301	
COc1cc2c(c(O)c1C(=O)/C=C/c1ccc(OCCCC[N+](C)(C)CC(=O)N3CCSCC3)cc1)C=CC(C)(C)O2.[Br-]		4	4	2	2	4	4	2	4	4	2	2	705	
COc1cc2c(c(O)c1C(=O)/C=C/c1ccc(OCCCCC[N+](C)(C)CC(=O)N3CCOCC3)cc1)C=CC(C)(C)O2.[Br-]		8	2	4	4	4	4	2	4	4	4	2	> 1280	
CCCCNC(=O)C[N+](C)(C)CCCCOc1ccc(/C=C/C(=O)c2c(OC)cc3c(c2O)C=CC(C)(C)O3)cc1.[Br-]		4	2	2	2	2	2	2	2	4	2	4	220	
CCCCCCNC(=O)C[N+](C)(C)CCCOc1ccc(/C=C/C(=O)c2c(OC)cc3c(c2O)C=CC(C)(C)O3)cc1.[Br-]		2	2	2	2	2	2	4	4	2	1	1	97.9	
CCCCN(CCCC)C(=O)C[N+](C)(C)CCCOc1ccc(/C=C/C(=O)c2c(OC)cc3c(c2O)C=CC(C)(C)O3)cc1.[Br-]		2	2	2	2	2	1	1	1	1	2	2	434	
CC[C@H](C)[C@H](NC(=O)CN)C(=O)NCC(=O)N[C@@H](C)C(=O)N[C@H](C(=O)N[C@@H](CC(C)C)C(=O)N[C@@H](CCCCN)C(=O)N[C@H](C(=O)N[C@@H](CC(C)C)C(=O)N[C@H](C(=O)N[C@H](C(=O)NCC(=O)N[C@@H](CC(C)C)C(=O)N1CCC[C@H]1C(=O)N[C@@H](C)C(=O)N[C@@H](CC(C)C)C(=O)N[C@H](C(=O)N[C@@H](CO)C(=O)N[C@@H](Cc1c[nH]c2ccccc12)C(=O)N[C@H](C(=O)N[C@@H](CCCCN)C(=O)N[C@@H](CCCNC(=N)N)C(=O)N[C@@H](CCCCN)C(=O)N[C@@H](CCCNC(=N)N)C(=O)N[C@@H](CCC(N)=O)C(=O)N[C@@H](CCC(N)=O)C(N)=O)[C@@H](C)CC)[C@@H](C)CC)[C@@H](C)O)[C@@H](C)O)C(C)C)C(C)C														Active
CCCNC(=O)C[N+](C)(C)CCCCCOc1ccc(/C=C/C(=O)c2c(OC)cc3c(c2O)C=CC(C)(C)O3)cc1.[Br-]		4	2	8	2	2	1	1	2	2	8	2	974	
COc1cc2c(c(O)c1C(=O)/C=C/c1ccc(OCCCC[N+](C)(C)CC(=O)N(C(C)C)C(C)C)cc1)C=CC(C)(C)O2.[Br-]		2	8	2	2	2	2	1	2	2	2	2	657	
COc1cc2c(c(O)c1C(=O)/C=C/c1ccc(OCCCCC[N+](C)(C)CC(=O)N(CC(C)C)CC(C)C)cc1)C=CC(C)(C)O2.[Br-]		2	4	1	2	2	2	1	2	2	2	2	374	
COc1cc2c(c(O)c1C(=O)/C=C/c1ccc(OCCCC[N+](C)(C)CC(=O)N3CCOCC3)cc1)C=CC(C)(C)O2.[Br-]		8	8	8	4	8	4	4	4	4	8	16	> 1280	
CCCNC(=O)C[N+](C)(C)CCCOc1ccc(/C=C/C(=O)c2c(OC)cc3c(c2O)C=CC(C)(C)O3)cc1.[Br-]		4	4	2	2	4	2	2	2	2	2	4	210	
